From paper PMC10867458, “Depolymerization of actin filaments by Cucurbitacin I through binding G‐actin” (Food Science & Nutrition, 2023)
Like-named read-outs stand apart in the source and are kept apart here.

Experiments:
[1] = target: T1, G-actin (rabbit skeletal muscle actin) (Oryctolagus cuniculus, UniProt P68135); test: differential scanning fluorimetry (SYPRO orange) with Kd; also pyrene-actin polymerization inhibition; assay type: binding
T1 construct: gene ACTA1

[2] = target: T1, G-actin (rabbit skeletal muscle actin); test: pyrene-actin polymerization assay, […] (V50 […] vs control […]); assay type: biochemical
[3] = target: T1, G-actin (rabbit skeletal muscle actin); test: as above; assay type: biochemical; remark: listed apart in the source

CC(C)(O)/C=C/C(=O)[C@](C)(O)[C@H]1[C@H](O)C[C@@]2(C)[C@@H]3CC=C4[C@@H](C=C(O)C(=O)C4(C)C)[C@]3(C)C(=O)C[C@]12C [CuI, Cucurbitacin I] showed a Kd [1] of 30 ± 2.5 nM.

For C=C1[C@@H](C)[C@H]2[C@H](Cc3ccccc3)NC(=O)[C@]23[C@H](OC(C)=O)/C=C/[C@@](C)(O)C(=O)[C@@H](C)C/C=C/[C@H]3[C@@H]1O [Cytochalasin D], the “V 50” value [2] was 77.59 ± 7776.

With C/C1=C\[C@H](C)C[C@H](C)OC(=O)C[C@H](c2ccc(O)cc2)NC(=O)[C@@H](Cc2c(Br)[nH]c3ccccc23)N(C)C(=O)[C@H](C)NC(=O)[C@@H](C)C1 [Jasplakinolide] the “V 50” value [3] was 54.7 ± 5114.
